Assay results reported in patent US20100151520A1, “Translation Enhancer Elements Of Genes Encoding Human Tau Protein and Human Alpha-Synuclein Protein” (priority 2004, published 2010).
“Also recorded” adds a separate entry of the source. Blank lines part the entries; values can stand above or below the compound they belong to.

Key:
wild-type pGL3 vector = assay: Luciferase reporter assay, wild-type pGL3 control vector; type: cell-based
Protocol: (§1) To determine whether α-synuclein 5′UTR sequences were iron responsive SH-SY5Y transfection experiments were performed using an ASN 5′UTR pGL3 construct compared to pGL3, and control vector in which the luciferase expression was translated in the absence of the α-synuclein 5′UTR.
A 46 base sequence (SEQ ID NO:21) of the α-synuclein 5′ UTR was synthesized with a HindIII site at the 5′ end and a Nco I site at the 3′ end (Integrated DNA Technologies, Coralville, Iowa) and then ligated into a pGL-3 vector (Promega, Madison Wis.) immediately in front of the luciferase gene, under the control of a SV40 promotor. Wild-type pGL3 or pGL3 containing the α-synuclein 5′ UTR insert upstream of the luciferase promotor (α-synuclein 5′UTR-pGL3) were used. Expression of green fluorescent protein (GFP) within the pGL3 vector, controlled by a SV40 late poly(A) signal was used to control for transfection efficiency. 8×10^5 neuroblastoma HYSY cells were seeded for 24 hours in 60-mm^2 dishes with 5 ml Dulbeccco's modified medium containing 10% fetal bovine serum. […] GFP expression was quantified at 489/509 nm with the same Wallac 1420 counter to control for transfection efficiency.

Tau mRNA = assay: Quantitative real-time PCR of Tau mRNA levels in SY5Y cells; type: cell-based, human; conditions: for Tau mRNA levels: 6 or 16 hours (100 μM DFO where stated), FIG. 5
Protocol: Quantitative real-time PCR (QRTPCR) was performed on RNA extracted from iron/zinc and desferrioxamine treated mRNA. Methods for QRTPCR were as described for priming an α-synuclein amplicon (see Example 1) except that oligonucleotides were (NM016835Rev) 5′[…]3′ (SEQ ID NO:15) and (NM 016835For) 5′[…]3′ (SEQ ID NO:16).
(§2) Neuroblastoma cells (SY5Y) were treated with each agent for 6 hours or 16 hours and control cells were left untreated (U) for the same indicated times (i.e., 6 hours untreated=U6, and 16 hours untreated=U16).

[1] = test system: Transferrin receptor mRNA (TfR mRNA); assay: Quantitative real-time PCR of transferrin receptor mRNA (positive control) in SY5Y cells; type: cell-based
Protocol: (§3) Quantitative real-time PCR (qRTPCR) was used to measure steady-state mRNA levels for α-synuclein mRNA relative to […] in response to iron. Neuroblastoma (SY5Y) cells were treated with iron or desferrioxamine (DFO) for 6 hours or 16 hours and control cells were left untreated (U) for the same indicated times (i.e., 6 hours untreated=U6, and 16 hours untreated=U16). TfR mRNA was the experimental positive control mRNA.
(§4) The qRTPCR was conducted as follows. Total RNA was isolated from iron and desferrioxamine treated neuroblastoma cell line, SH-SY5Y according to manufacturers specification (RNAeasy Mini Kit, Qiagen, Valencia, Calif.). The optional on-column DNase digestion with the RNase-Free DNase set (Qiagen) was incorporated into all RNA isolations.
(§5) 3 μg total RNA was primed with oligo-dT and the Superscript II enzyme according to manufacturer's instructions (Invitrogen, Carlsbad, Calif.) to synthesize […] cDNA. For qRTPCR, primer specificity was initially verified by searching for homology to genomic databases using NCBI BLAST. After completion of qRTPCR, the appropriately sized amplicon were confirmed by agarose gel electrophoresis. All reactions were performed in duplicate in a 50 μl volume consisting of 3 μl cDNA, 15 μmol each of the forward and reverse primer of β-Actin and 45 μmol each of the forward and reverse primer of all other primer pairs, and the fluorescent SYBR Green I dye. Fluorescence was measured at the end of each annealing cycle using the ABI Prism 7000 (Applied Biosystems, Foster City, Calif.). Average threshold cycle (Ct) values were measured in the exponential phase of the PCR reaction for each duplicate sample. Average Ct values were normalized against that β-Actin amplified in parallel from the same sample. Relative expression of the treated samples was determined by first normalizing against that of the untreated samples (ΔCT^sample−ΔCT^normal=ΔΔCT) and then calculating the fold change (fold change=2^−ΔΔCt).
(§6) Primers used for quantitative real-time PCR were as follows: […]
The details of the annealing temperature are as follows. […] For real-time PCR, the cDNA was amplified using an ABI PRISM 7000 Sequence Detection System (PE Applied Biosystems, Foster City, Calif.). The dsDNA-specific dye SYBR Green I incorporated into the PCR reaction buffer QuantiTech™ SYBR PCR (Qiagen) to allow for quantitative detection of the PCR product in a 25-μl reaction volume. The temperature profile of the reaction was 95° C. for 10 min, 40 cycles of denaturation at 95° C. for 15 sec, annealing at 60° C. for 30 sec, and extension at 72° C. for 30 sec. An internal housekeeping gene control, β-actin, was used to normalize differences in RNA isolation, RNA degradation, and the efficiencies of the RT. The size of the PCR product was first verified on a 1.5% agarose gel, followed by melting curve analysis.
as §2

α-synuclein mRNA = assay: Quantitative real-time PCR of α-synuclein mRNA levels in SY5Y cells; type: cell-based, human; conditions: 6 or 16 hours, relative to beta actin (FIG. 4)
Protocol: as §3, §4
as §5, with “All reactions were performed in duplicate in a 50 μl volume consisting of 3 μl cDNA, 15 μmol each of the forward and reverse primer of β-Actin and 45 μmol each of the forward and reverse primer of all other primer pairs, and the fluorescent SYBR Green I dye.” left out, “Average Ct values were normalized against that β-Actin amplified in parallel from the same sample.” left out
as §6
The details of the annealing temperature are as follows. […] The dsDNA-specific dye SYBR Green I incorporated into the PCR reaction buffer QuantiTech™ SYBR PCR (Qiagen) to allow for quantitative detection of the PCR product in a 25-μl reaction volume. […]

α-synuclein protein = assay: Western blot of α-synuclein protein levels in treated SY5Y neuroblastoma cells; type: cell-based, human
α-synuclein 5′ UTR = assay: Luciferase reporter assay, α-synuclein 5′UTR-pGL3 transfected neuroblastoma cells; type: cell-based, human; conditions: 48 hours, luciferase controlled by α-synuclein 5′ UTR
Protocol: as §1
A 46 base sequence (SEQ ID NO:21) of the α-synuclein 5′ UTR was synthesized with a HindIII site at the 5′ end and a Nco I site at the 3′ end (Integrated DNA Technologies, Coralville, Iowa) and then ligated into a pGL-3 vector (Promega, Madison Wis.) immediately in front of the luciferase gene, under the control of a SV40 promotor. Wild-type pGL3 or pGL3 containing the α-synuclein 5′ UTR insert upstream of the luciferase promotor (α-synuclein 5′UTR-pGL3) were used. Expression of green fluorescent protein (GFP) within the pGL3 vector, controlled by a SV40 late poly(A) signal was used to control for transfection efficiency. 8×10^5 neuroblastoma HYSY cells were seeded for 24 hours in 60-mm^2 dishes with 5 ml Dulbeccco's modified medium containing 10% fetal bovine serum. For transfection, cells were first rinsed 3× in Phosphate Buffered Saline (PBS) and then treated with 5 μg of purified DNA combined with PolyFect transfection reagent and growth medium, according to the manufacturer's specifications (Qiagen). After a 24 hours incubation at 37° and 5% CO2 to maximize transfection efficiency, cells were washed in PBS 3×, trypsonized and plated to 95% confluence in 96-well plates. Cells were allowed to seed in the 96-well plates for 12 hours in Dulbecco's modified medium containing 10% fetal bovine serum and ampicillin, to select for cells containing the plasmid, which contained an ampicillin resistance gene. […] Treatment medium was prepared fresh the day of experiment and incubated for 1 hour at 37° prior to the experiment to maximize solubility. […] Cells were lysed with 1× Bright-glo luciferase assay buffer and the lysates combined with bright-glo luciferase assay substrate warmed to 37°, according to the specifications of the manufacturer (Promega, Madison, Wis.). All experiments were performed in triplicate. Automated luciferase assays were performed with a Wallac 1420 multi-label counter. GFP expression was quantified at 489/509 nm with the same Wallac 1420 counter to control for transfection efficiency.

[2] = biological target: T1, Iron-Regulatory Protein-1 (IRP-1) binding to α-synuclein mRNA (Homo sapiens, UniProt P21399); assay: Immunoprecipitation RT-PCR of α-synuclein mRNA bound to IRP-1 in SH-SY5Y lysates; type: cell-based; conditions: iron-treated SH-SY5Y cells, FIG. 6B
T1 construct: endogenous in cells; host or cells: SH-SY5Y neuroblastoma cells (lysates after treatment of the cells)
T1 sequence (P21399 1-889): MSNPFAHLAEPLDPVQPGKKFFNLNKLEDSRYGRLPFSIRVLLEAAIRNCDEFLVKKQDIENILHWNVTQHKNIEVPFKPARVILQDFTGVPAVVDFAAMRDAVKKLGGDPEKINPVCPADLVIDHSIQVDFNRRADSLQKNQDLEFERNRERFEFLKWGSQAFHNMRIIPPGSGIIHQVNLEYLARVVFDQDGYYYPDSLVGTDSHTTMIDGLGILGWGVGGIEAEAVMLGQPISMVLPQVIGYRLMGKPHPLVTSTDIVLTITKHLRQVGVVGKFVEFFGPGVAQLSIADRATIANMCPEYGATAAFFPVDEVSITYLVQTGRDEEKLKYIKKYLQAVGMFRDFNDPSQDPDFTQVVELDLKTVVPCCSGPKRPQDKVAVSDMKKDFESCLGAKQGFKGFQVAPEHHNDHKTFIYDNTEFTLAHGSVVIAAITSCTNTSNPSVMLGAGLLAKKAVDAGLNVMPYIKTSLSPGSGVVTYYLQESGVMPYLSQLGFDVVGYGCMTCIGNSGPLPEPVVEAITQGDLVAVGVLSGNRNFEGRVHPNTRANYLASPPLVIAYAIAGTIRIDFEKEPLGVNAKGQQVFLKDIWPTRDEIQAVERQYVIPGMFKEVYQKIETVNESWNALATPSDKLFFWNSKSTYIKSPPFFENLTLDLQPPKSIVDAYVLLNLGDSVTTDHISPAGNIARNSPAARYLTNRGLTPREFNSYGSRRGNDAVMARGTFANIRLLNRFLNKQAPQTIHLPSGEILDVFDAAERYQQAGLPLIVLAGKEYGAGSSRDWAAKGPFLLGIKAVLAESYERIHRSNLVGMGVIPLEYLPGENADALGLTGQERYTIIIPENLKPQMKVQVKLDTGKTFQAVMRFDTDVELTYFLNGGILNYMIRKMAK
Protocol: Neuroblastoma cells were treated with (i) DFO ([…]), (ii) feTf (10 μM) or remained untreated. Cells were lysed in RIPA buffer, and cytosolic extracts were immunoprecipitated with antibody to IRP-1 and IRP-2. After washing with Fe-beads the bound mRNA or superatant RNA was reverse transcribed and the mRNAs attached to the IRP-1/IRP—2 were identified by immunoprecipitation of RNA that selectively interacted with IRP-1/IRP-2 (method of Thomson, A. M., et al., Biol. Chem. 2005 Aug. 26; 280(34):30032-45. Epub 2005 Jun. 20.
We tested whether α-synuclein mRNA interacted with IRP-1 or IRP-2 by use of an RNA co-immunoprecipitation technique shown in FIG. 6. In this IPRT-PCR experiment α-synuclein mRNA was selectively co-immunoprecipitated with IRP-1 from neuroblastoma lysates (the presence of ASN mRNA was detected by PCR of cDNA reverse transcribed from mRNA immunopreciptated with IRP-1 on washed beads according to standard methods (Thomson, A. M., et al., (2005) J Biol Chem 280, 30032-30045). Ferritin mRNA was selectively immunopreciptated with both IRP-1 and IRP-2, whereas α-synuclein mRNA was selectively bound to IRP-1, not IRP-2. This technique was semi qualitative PCR, though the amount of α-synuclein mRNA attached IRP-1 was iron dependent in the experiment shown in FIG. 6B. […]

Compound: ferric ammonium citrate [FAC]
effect on luciferase activity (wild-type pGL3 vector): no effect
Tau mRNA levels (Tau mRNA): down regulated
TfR mRNA reduction by FAC ([1]; FIG. 5 (Tau experiment)): 4 fold
α-synuclein mRNA levels (α-synuclein mRNA): did not change as significantly although it was reduced; also recorded: not modulated
α-synuclein protein levels (monomer, 15 kDa) (α-synuclein protein; 100 μM FAC, 6 hour and 3 days, Western blot (FIG. 3)): increase
increase in luminescence (α-synuclein 5′ UTR; 10 mg/ml FAC): 5 fold
increase in luminescence (α-synuclein 5′ UTR; 100 mg/ml FAC, p<0.001): 20 fold

IRP-1 binding (to α-synuclein mRNA) [2]: reduced
Compound: iron
fold reduction for Tau mRNA (Tau mRNA; 400 micromolar iron (16 h)): 0.66 fold
fold reduction for TfR mRNA ([1]; 400 micromolar iron (16 h), FIG. 5): 0.45 fold

Compound: CC(=O)N(O)CCCCCNC(=O)CCC(=O)N(O)CCCCCNC(=O)CCC(=O)N(O)CCCCCN [DFO, desferrioxamine]
effect on luciferase activity (wild-type pGL3 vector): no effect
Tau mRNA levels (Tau mRNA): up-regulated; also recorded: dramatically changed
increase in induction for Tau mRNA (Tau mRNA; 16 hours treatment with DFO, relative to beta actin): 5 fold
TfR mRNA up-regulation in response to DFO ([1]; DFO (100 μM where stated), FIG. 4, relative to beta actin): 3 fold
TfR mRNA up-regulation in response to DFO ([1]; FIG. 5 (Tau experiment), 16 hours DFO where stated): 4.5 fold
α-synuclein mRNA levels (α-synuclein mRNA): unchanged; also recorded: not modulated
α-synuclein mRNA levels (α-synuclein mRNA; listed as desferrioxamine): unchanged
steady-state levels of α-synuclein protein (α-synuclein protein; 100 μM DFO (16 h)): reduced
intracellular levels of α-synuclein protein (α-synuclein protein; short-term (6 h) and long-term (3 d) desferrioxamine treatment): dramatic reduction
decrease in luminescence (α-synuclein 5′ UTR; 50 mM DFO): 25%
decrease in luminescence (α-synuclein 5′ UTR; 100 mM DFO, p<0.001): 50%

Compound: zinc
TfR mRNA responsiveness to zinc (control for iron specificity) ([1]; FIG. 5): surprisingly responsive
